# From patent publication US20030229037A1, “Novel cationic amphiphiles” (priority 2000, published 2003)
# Key:
# COS-7 cells [1] = experiment: Transfection of COS-7 cells with lipid/DNA lipoplexes (luciferase reporter plasmid pCMXluc), efficiency relative to DOTAP; format: cell-based, green meerkat; details: for relative transfection efficiency (maximum): COS-7, pCMXluc, cationic lipid/DOPE 1:1, most effective lipid/DNA ratio of 1:1 to 15:1, 48 h, RLU/µg protein based on DOTAP = 100%
# Method: A transfection experiment with cationic lipids can be broken down into four different individual steps. An important prerequisite for the success of a transfection experiment is the successful preparation of liposomes from the lipids to be tested (Step 1). DNA dissolved in buffer is then added to these liposomes, forming lipid/DNA complexes called lipoplexes (Step 2). The lipoplexes are then added to the cells (Step 3). The lipoplexes mediate the uptake of the DNA in the cell. Finally, the success of a transfection is quantified by determining the quantity of gene product forms and any toxicity that may occur is quantified by measuring the quantity of total protein (Step 4).
# A reporter plasmid pCMXluc containing 8,600 base pairs (provided by R. Schüle) that codes for the enzyme luciferase was used to manufacture the lipoplexes. The composition of the lipoplexes and especially the proportion of lipid/DNA [Weibel et al., 1995; Felgner et al., 1994] are critical factors for obtaining a high level of protein expression. The number of negative charges of the plasmid used (one negatively-charged phosphate group per base) and the number of positive charges caused by adding cationic liposomes were used to calculate the proportion of lipid/DNA. For polycationic lipids, the number of all amino functions contained in the head group was made equal to the number of positive charges per lipid. Eight different lipoplexes with charge ratios from 1:1 to 15:1 were manufactured for each cationic lipid. In this process, each lipoplex received the same quantity of DNA but different quantities of lipid. An overview of the model calculation of various proportions of lipid/DNA is presented below.
# After the plasmid (dissolved in buffer) was added to the liposomes, a pipette was used to carefully mix the formulation. It was then allowed to stand at room temperature for 60 minutes to allow the lipoplexes to form. The ripening conditions used here to prepare lipoplexes are based on findings described earlier [Yang and Huang, 1998] and also represent the result of a systematic optimization of lipoplex ripening conditions that were determined using a simple cationic lipid and a tricationic lipid, and which were used here to prepare all lipoplexes [Regelin, 2000].
# The COS-7 cell line (kidney cells from the green meerkat, fibroblast-like cells) which is often used in transfection studies [You et al., 1999; Yu et al., 1999] was used for the cell experiments. This cell line is known to be easy to transfect and grows adherently. It was therefore expected that transfection data could be matched up with all synthesized cationic lipids, and that structure/effectiveness relationships could therefore be identified. The cell experiments were carried out in 96-well microtiter plates with 5,000 cells per well. Cell density has a considerable influence on the success of a transfection experiment when COS-7 cells are used [Deshmukh and Huang, 1997]: on the one hand, cells that are sowed too densely are harder to transfect than less densely sowed cells due to their reduced tendency to divide. While it is not the intention of the applicant to be bound to any particular theory, nor to affect in any measure the scope of the appended claims, it is presently believed that the explanation lies in that plasmids pass more easily into the nucleus of dividing cells [Mortimer et al., 1999], because the […] becomes full of holes or is dissolved during cell division. On the other hand, transfections of cells that have a very low cell density are often associated with elevated cytotoxicity, because more lipoplexes are now available per cell. A moderate cell density of 40-50% confluence, at which a sufficient level of cell division is observed, was selected for the transfection experiments to be carried out as part of this work. […]
# [2] = amino groups, aqueous solution; literature values; cited from earlier work
# [3] = Liposome preparation (lipid film hydration, ultrasound) and size distribution by photon correlation spectroscopy; format: physicochemical; details: equimolar DOPE, HBS buffer pH 7.4, ultrasound bath
# Method: Preferably, the cationic amphiphile and helper lipid are present in a molar mixing ratio of from about five to one to about one to five. More preferably, the cationic amphiphile and helper lipid are present in a molar mixing ratio of from about two to one to about one to two. Still more preferably, the molar mixing ratio of cationic amphiphile to helper lipid is about 1:1. To prepare liposomes, the cationic lipid to be tested and a helper lipid were dissolved in an organic solvent (e.g., chloroform/methanol mixtures).
# The lipid films can be hydrated by adding buffer, which also gives rise to multilamellar vesicles (MLV). The MLV are then converted into small unilamellar vesicles (SUV) via ultrasonic treatment. [Moog, 1999; Lasic, 1994 and 1995]. The duration of exposure to ultrasound required until a homogenous population of SUV formed depended on the strength of the ultrasound bath. When a common commercial ultrasound bath was used, the process lasted 15-20 minutes. When a high performance ultrasound bath from Bandelin was used (which is also used to homogenize tissue samples) the same results were obtained after just 2 minutes. All liposomes were characterized by measuring their size distribution using photon correlation spectroscopy. In this process, the sizes of liposomes found were preferably between about 20 and about 200 nm, more preferably between about 50 and about 150 nanometers.
# To make the liposome preparation, dissolve 1.29 μmol of the simple cationic lipid to be tested (bicationic: 0.645 μmol, tricationic: 0.43 μmol) in chloroform/methanol (2:1 v/v) in a test tube with an equimolar quantity of DOPE. Use the simple cationic lipid DOTAP without the addition of DOPE.
# Slowly blow off the organic solvent with a TCS sample preparation system (Vapotherm, BARLEY, Bielefeld, Germany) using nitrogen (30-60 minutes) at room temperature. The dried lipid films can be stored for many months at −20° C. […]
# COS-7 cells [4] = experiment: Total protein quantity per well (BCA test) as measure of cytotoxicity of the lipoplexes; format: cell-based, green meerkat; details: COS-7, lipid/DOPE 1:1 lipoplexes, 48 h
# Method: 48 hours after the lipoplexes were added, the medium was removed and the cells were washed, because the medium would interfere with the tests to determine the transfection data. The cells were then lysed in order to make a homogeneous cell protein solution. The lysate of every single well was distributed and the total quantity of protein and the luciferase activity were determined in independent assays.
# The total protein quantity was determined using the BCA test with bovine serum albumin as the standard and indicated in the unit μg/well. The protein quantity measured correlates with the number of adherent, living cells still present after transfection and can therefore be used as a measure of toxicity of the respective lipoplexes [Gao and Huang, 1991]. Comparisons of the protein quantities measured with results from cytotoxicity assays that were performed [Regelin, 2000] verify this relationship. The measured values were used in the calculation of transfection efficiency (see below).
# Remove the supernatant medium completely, wash the cells once with a 0.9% NaCl solution, then add 50 μl lysis buffer (ROCHE, Germany) per well. […] Use a BCA test (PIERCE, Rockford, USA) to determine the quantity of total protein per well. […] Determine the protein concentration using the calibration curve in the spectral photometer (Spectra, TECAN, Germany) by quantifying the absorption at λ=550 nm.
Molecule,liposome formation in mixture with DOPE [3],relative transfection efficiency (maximum) (COS-7 cells [1]),other results
"CCCCCCCC/C=C\CCCCCCCC(=O)OCC(C[N+](C)(C)C)OC(=O)CCCCCCC/C=C\CCCCCCCC.[Cl-] (stereo not shown) [DOTAP, N-[1-(2,3-dioleoyloxy)propyl]-N,N,N-trimethylammoniumchloride, reference compound]",–,–,"transfection efficiency of the standard lipid (defined as 100%) (COS-7 cells [1]; DOTAP without DOPE, lipid/DNA 2.5:1, COS-7, external standard in each microtiter plate): 100%"
NCCCCNCCCN [Spermidine],–,–,pKa [2]: above 8
CCCCCCCCCCCCCCOCC(COC(=O)CN(C)C)OCCCCCCCCCCCCCC (stereo not shown) [compound 110],formed no liposomes,only very low transfection efficiencies,–
CCCCCCCCCCCCCCOCC(COC(=O)C[N+](C)(C)C)OCCCCCCCCCCCCCC (stereo not shown) [compound 111],used successfully in a mixture with DOPE to prepare liposomes,83%,–
"CC(C)CCC[C@@H](C)[C@H]1CC[C@H]2[C@@H]3CC=C4C[C@@H](OC(=O)CN(C)C)CC[C@]4(C)[C@H]3CC[C@]12C [lipid 4, N-Cholesteryloxycarbonylmethyl-N,N-dimethylamine]",liposomes could not be prepared,did not result in a single transfection,cytotoxicity of the lipoplexes (total protein quantity) (COS-7 cells [4]): No cytotoxicity was observed
"CCCCCCCCCCCCCCOCC(COC(=O)CNCCCCNCCCN)OCCCCCCCCCCCCCC.O=CO (stereo not shown) [lipid 115, 10-((2,3-di-tetradecyloxy)-propyloxcarbonylmethyl)-1,5,10-triazadekan formic acid salt]",–,135%,–
CN(C)C [trimethylamine],–,–,pKa [2]: ~10
Lipid A,–,approx. 300%,cytotoxicity of the lipoplexes (total protein quantity) (COS-7 cells [4]): do not exhibit elevated cytotoxicities
